Reference: patent US10065990B2, “Cyclic peptide compound, and preparation method, pharmaceutical composition and use thereof” (HANGZHOU GUANYU BIO-MEDICAL CO., LTD, priority 2013, dated 2018)
pIC50: −log10 of the molar value. Read-outs that look alike come from different tables or passages of the source.

Key:
HDAC3 = HDAC3 (Homo sapiens, UniProt O15379); assay: HDAC biochemical activity measurement (fluorescent substrate deacetylation);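 also: fluorogenic acetyl-lysine substrate (20 µM) deacetylated by HDAC3, then developer added for 15 min at room temperature, release of fluorophore read at excitation 360 nm, emission 460 nm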
Chain of HDAC3 (O15379 whole entry, species assumed): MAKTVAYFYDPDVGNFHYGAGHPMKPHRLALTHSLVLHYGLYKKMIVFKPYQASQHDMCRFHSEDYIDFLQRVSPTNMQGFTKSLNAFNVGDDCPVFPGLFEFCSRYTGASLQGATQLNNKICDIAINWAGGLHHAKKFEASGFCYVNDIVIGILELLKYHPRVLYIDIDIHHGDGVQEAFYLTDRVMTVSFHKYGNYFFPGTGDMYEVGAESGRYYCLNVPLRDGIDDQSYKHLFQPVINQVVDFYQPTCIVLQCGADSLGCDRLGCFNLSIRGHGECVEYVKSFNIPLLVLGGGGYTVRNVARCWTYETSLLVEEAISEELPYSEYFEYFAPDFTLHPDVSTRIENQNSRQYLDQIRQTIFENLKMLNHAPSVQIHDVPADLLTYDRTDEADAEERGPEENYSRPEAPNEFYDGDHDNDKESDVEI
Chain of HDAC3 (Q9Y618 395-489 partner limits assumed, species assumed): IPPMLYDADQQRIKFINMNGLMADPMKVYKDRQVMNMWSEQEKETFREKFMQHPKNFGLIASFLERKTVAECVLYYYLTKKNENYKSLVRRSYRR

[1] = tested on: KBM-5 (human chronic myelogenous leukemia); assay: MTT cancer cell growth inhibition; assay type: cell-based; conditions: MTT, 72 hours incubation, KBM-5 cells, read-out: GI50 KBM-5
Summary of the method: (§1)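 Absorbance at 570 nm of DMSO-dissolved formazan, formed during a 4 h MTT incubation, served as the viability measure. Cells had been exposed 72 h to drug at 10^−5–10^−10 M final; GI50 was calculated from these readings.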

[2] = tested on: H1975 (non-small cell lung adenocarcinoma); assay: MTT cancer cell growth inhibition; assay type: cell-based; conditions: MTT, 72 hours incubation, H1975 cells, read-out: GI50 H1975
Summary of the method: as §1

[3] = tested on: K562 (human leukemia cells); assay: MTT cancer cell growth inhibition; assay type: cell-based; conditions: MTT, 72 hours incubation, K562 cells, read-out: GI50 K562
Summary of the method: as §1

[4] = tested on: KBM5-T315I (human chronic myelogenous leukemia); assay: MTT cancer cell growth inhibition; assay type: cell-based; conditions: MTT, 72 hours incubation, KBM5-T315I cells, read-out: GI50 KBM5-T315I
Summary of the method: as §1

[5] = tested on: lncap (prostate cancer cells); assay: MTT cancer cell growth inhibition; assay type: cell-based; conditions: MTT
Summary of the method: as §1

HDAC2 = HDAC2 (Homo sapiens, UniProt Q92769); assay: HDAC biochemical activity measurement (fluorescent substrate deacetylation);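 also: HDAC2 enzyme with an acetyl-lysine fluorescent substrate, then developer added, fluorescence read at excitation 360 nm and emission 460 nm, inhibition measured across several compound concentrations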; conditions: 37° C. 30 minutes
Chain of HDAC2 (Q92769 whole entry, species assumed): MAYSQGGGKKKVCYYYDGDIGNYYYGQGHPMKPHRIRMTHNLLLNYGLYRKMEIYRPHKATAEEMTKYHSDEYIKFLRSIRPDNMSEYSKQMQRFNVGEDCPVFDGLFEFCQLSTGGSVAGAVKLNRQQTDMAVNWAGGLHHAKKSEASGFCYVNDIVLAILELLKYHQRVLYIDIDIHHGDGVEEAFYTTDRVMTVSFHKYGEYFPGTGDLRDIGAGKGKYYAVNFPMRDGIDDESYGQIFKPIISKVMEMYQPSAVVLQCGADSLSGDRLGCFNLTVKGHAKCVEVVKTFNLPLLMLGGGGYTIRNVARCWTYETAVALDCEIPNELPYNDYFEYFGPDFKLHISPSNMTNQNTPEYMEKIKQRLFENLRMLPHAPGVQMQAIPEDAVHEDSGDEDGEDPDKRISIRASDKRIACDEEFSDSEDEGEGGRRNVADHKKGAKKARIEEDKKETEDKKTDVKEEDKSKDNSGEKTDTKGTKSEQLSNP

HDAC7 = target: T1, HDAC7 (Homo sapiens, UniProt Q8WUI4); assay: as above; conditions: HDAC7; 37° C. 30 minutes;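 also: fluorogenic deacetylation assay using acetyl-lysine substrate at 20 µM, enzyme and compound incubated 30 min at 37 °C, then developer added, fluorescence read at 360/460 nm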
T1 sequence (Q8WUI4 1-952): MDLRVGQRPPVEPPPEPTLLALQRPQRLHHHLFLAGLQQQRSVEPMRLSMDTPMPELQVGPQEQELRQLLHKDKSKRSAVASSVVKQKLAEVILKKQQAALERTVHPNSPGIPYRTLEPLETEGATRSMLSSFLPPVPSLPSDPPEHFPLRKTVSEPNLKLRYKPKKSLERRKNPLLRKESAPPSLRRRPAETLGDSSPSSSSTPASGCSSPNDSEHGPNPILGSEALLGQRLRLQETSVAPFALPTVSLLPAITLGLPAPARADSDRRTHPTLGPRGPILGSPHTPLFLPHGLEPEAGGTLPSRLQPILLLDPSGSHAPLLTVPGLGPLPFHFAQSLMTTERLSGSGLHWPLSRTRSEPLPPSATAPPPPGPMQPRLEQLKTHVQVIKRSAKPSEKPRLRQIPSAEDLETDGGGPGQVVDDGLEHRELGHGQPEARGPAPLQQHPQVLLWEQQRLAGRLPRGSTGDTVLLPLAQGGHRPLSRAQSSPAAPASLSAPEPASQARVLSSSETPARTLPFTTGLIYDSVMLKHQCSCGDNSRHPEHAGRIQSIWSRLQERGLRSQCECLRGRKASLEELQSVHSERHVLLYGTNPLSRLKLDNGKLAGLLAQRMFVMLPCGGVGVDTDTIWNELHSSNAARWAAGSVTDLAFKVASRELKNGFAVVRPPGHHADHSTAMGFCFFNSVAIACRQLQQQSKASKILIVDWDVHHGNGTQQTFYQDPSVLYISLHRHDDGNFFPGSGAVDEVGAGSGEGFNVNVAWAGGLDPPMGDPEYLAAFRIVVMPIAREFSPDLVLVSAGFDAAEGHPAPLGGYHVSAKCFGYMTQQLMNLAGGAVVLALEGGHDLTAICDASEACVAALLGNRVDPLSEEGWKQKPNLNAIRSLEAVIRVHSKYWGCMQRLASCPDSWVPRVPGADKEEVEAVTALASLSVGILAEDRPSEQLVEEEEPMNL

[6] = Homo sapiens, LNCaP, 72 h, 72 hours incubation, read-out: GI50 lnca
[7] = Homo sapiens, LNCaP, 72 h, 72 hours, present invention, read-out: GI50 lncap, a
[8] = Homo sapiens, LNCaP, 72 h, lncap cells, 72 hours incubation, read-out: GI50 lnca
[9] = read-out: IC50 HDAC3, HDAC3, 37° C. 30 minutes

| Structure (SMILES) | pIC50 (HDAC3) | GI50 ([1]; Homo sapiens, KBM5, 72 h) | GI50 ([2]; Homo sapiens, NCI-H1975, 72 h) | GI50 ([3]; Homo sapiens, K562, 72 h) | GI50 ([4]; Homo sapiens, 72 h) | GI50 [5, 6] | pIC50 (HDAC2) | IC50 HDAC7 (HDAC7) | GI50 [1] | GI50 [2] | GI50 [3] | GI50 [4] | GI50 [5, 7] | GI50 [5, 8] | pIC50 (HDAC3; [9]) | GI50 ([5]; lncap cells, 72 hours incubation, read-out: GI50 lnca) | GI50 ([5]; 72 hours incubation, read-out: GI50 lnca) |
| --- | --- | --- | --- | --- | --- | --- | --- | --- | --- | --- | --- | --- | --- | --- | --- | --- | --- |
| C/C=C1\NC(=O)c2cc(F)cc(n2)CNC(=O)C[C@@H](/C=C/CCSC(=O)CCCCCCC)OC(=O)[C@H](CC)NC1=O [Compound 55] | – | 89 nM | 52 nM | 36 nM | 73 nM | 20 nM | 7.47 | no activity | – | – | – | – | – | – | 7.46 | – | – |
| C/C=C1\NC(=O)c2nc(ccc2C)CNC(=O)C[C@@H](/C=C/CCSC(C)=O)OC(=O)[C@H](Cc2ccccc2)NC1=O [Compound 66] | – | 91 nM | 27 nM | 37 nM | 31 nM | 30 nM | 7.80 | no activity | – | – | – | – | – | – | 7.51 | – | – |
| C/C=C1\NC(=O)c2cccc(n2)CNC(=O)C[C@@H](/C=C/CCSC(=O)CCCCCCC)OC(=O)[C@H](C(C)C)NC1=O [Compound 1] | – | 37 nM | 122 nM | 78 nM | 46 nM | – | 7.66 | no activity | – | – | – | – | 9 nM | – | 7.46 | – | – |
| C/C=C1\NC(=O)c2nc(ccc2F)CNC(=O)C[C@@H](/C=C/CCSC(=O)CCCCCC)OC(=O)[C@H](C(C)C)NC1=O [Compound 33] | – | 83 nM | 26 nM | 16 nM | 51 nM | 30 nM | 7.37 | no activity | – | – | – | – | – | – | 7.44 | – | – |
| C/C=C1\NC(=O)c2cccc(n2)CNC(=O)C[C@@H](/C=C/CCSC(C)=O)OC(=O)[C@H](Cc2ccc(O)cc2)NC1=O [Compound 18] | – | 54 nM | 53 nM | 35 nM | 37 nM | 10300 nM | 7.26 | no activity | – | – | – | – | – | – | 7.17 | – | – |
| C/C=C1\NC(=O)c2cc(F)cc(n2)CCNC(=O)C[C@@H](/C=C/CCSC(C)=O)OC(=O)[C@H](C(C)C)NC1=O [Compound 104] | 7.37 | 79 nM | 38 nM | 33 nM | 68 nM | 30 nM | 7.59 | no activity | – | – | – | – | – | – | – | – | – |
| C/C=C1\NC(=O)c2nc(F)cc(n2)CNC(=O)C[C@@H](/C=C/CCSC(C)=O)OC(=O)[C@H](C(C)C)NC1=O [Compound 98] | – | – | – | – | – | – | 7.72 | no activity | 29 nM | 81 nM | 37 nM | 58 nM | – | – | 7.21 | – | 20 nM |
| C/C=C1\NC(=O)c2cccc(n2)CNC(=O)C[C@@H](/C=C/CCSC(C)=O)OC(=O)[C@H](Cc2ccccc2)NC1=O [Compound 13] | – | 84 nM | 53 nM | 25 nM | 11 nM | 100 nM | 6.58 | no activity | – | – | – | – | – | – | 6.47 | – | – |
| C/C=C1\NC(=O)c2cccc(n2)CNC(=O)C[C@@H](/C=C/CCSC(C)=O)OC(=O)[C@H](CCCCN)NC1=O [Compound 15] | – | 95 nM | 38 nM | 26 nM | 16 nM | 400 nM | 7.33 | no activity | – | – | – | – | – | – | 7.24 | – | – |

Further lines, results first:

| pIC50 (HDAC3) | GI50 ([1]; Homo sapiens, KBM5, 72 h) | GI50 ([2]; Homo sapiens, NCI-H1975, 72 h) | GI50 ([3]; Homo sapiens, K562, 72 h) | GI50 ([4]; Homo sapiens, 72 h) | GI50 [5, 6] | pIC50 (HDAC2) | IC50 HDAC7 (HDAC7) | GI50 [1] | GI50 [2] | GI50 [3] | GI50 [4] | GI50 [5, 7] | GI50 [5, 8] | pIC50 (HDAC3; [9]) | GI50 ([5]; lncap cells, 72 hours incubation, read-out: GI50 lnca) | GI50 ([5]; 72 hours incubation, read-out: GI50 lnca) | Structure (SMILES) |
| --- | --- | --- | --- | --- | --- | --- | --- | --- | --- | --- | --- | --- | --- | --- | --- | --- | --- |
| 7.41 | 81 nM | 29 nM | 39 nM | 56 nM | 20 nM | 7.59 | no activity | – | – | – | – | – | – | – | – | – | C/C=C1\NC(=O)c2ccc(F)c(n2)CNC(=O)C[C@@H](/C=C/CCSC(=O)CC)OC(=O)[C@H](C(C)C)NC1=O [Example 47] |
| 7.33 | – | – | – | – | 30 nM | 7.82 | no activity | 76 nM | 28 nM | 28 nM | 61 nM | – | – | – | – | – | C/C=C1\NC(=O)c2nc(ccc2F)CNC(=O)C[C@@H](/C=C/CCSC(C)=O)OC(=O)[C@H](C(C)C)NC1=O [Example 48] |
| 7.28 | 71 nM | 56 nM | 47 nM | 83 nM | – | 7.68 | no activity | – | – | – | – | 70 nM | 10 nM | – | – | – | C/C=C1\NC(=O)c2cccc(n2)CNC(=O)C[C@@H](/C=C/CCSC(=O)CCCCCCC)OC(=O)[C@H](CCSC)NC1=O [Compound 240] |
| 7.21 | 36 nM | 32 nM | 41 nM | 32 nM | – | 7.44 | no activity | – | – | – | – | – | 310 nM | – | – | – | C/C=C1\NC(=O)c2ccc(SC)c(n2)CNC(=O)C[C@@H](/C=C/CCSC(=O)CCCCCCC)OC(=O)[C@H](Cc2ccccc2)NC1=O [Compound 191] |
| – | – | – | – | – | – | 7.48 | no activity | 38 nM | 87 nM | 56 nM | 36 nM | – | – | 7.21 | 10 nM | – | C/C=C1\NC(=O)c2nc(cc(SC)n2)CNC(=O)C[C@@H](/C=C/CCSC(C)=O)OC(=O)[C@H](C(C)C)NC1=O [Compound 216] |
| – | 93 nM | 43 nM | 32 nM | 45 nM | – | 7.25 | no activity | – | – | – | – | 470 nM | 470 nM | 7.32 | – | – | C/C=C1\NC(=O)c2nc(ccc2C)CNC(=O)C[C@@H](/C=C/CCSC(=O)CCCCCCC)OC(=O)[C@H](C(C)C)NC1=O [Compound 243] |
| 7.64 | 31 nM | 58 nM | 67 nM | 22 nM | – | 7.62 | no activity | – | – | – | – | – | 70 nM | – | – | – | C/C=C1\NC(=O)c2cc(SC)cc(n2)CNC(=O)C[C@@H](/C=C/CCSC(=O)CCCCCC)OC(=O)[C@H](C(C)C)NC1=O [Compound 151] |
| 7.47 | 99 nM | 43 nM | 29 nM | 63 nM | 30 nM | 7.62 | no activity | – | – | – | – | – | – | – | – | – | C/C=C1\NC(=O)c2nc(ccc2F)CNC(=O)C[C@@H](/C=C/CCSC(=O)CCCCCCC)OC(=O)[C@H](CC)NC1=O [Example 54] |
| – | 49 nM | 83 nM | 69 nM | 87 nM | – | 7.49 | no activity | – | – | – | – | 940 nM | 940 nM | 7.46 | – | – | C/C=C1\NC(=O)c2cccc(n2)CNC(=O)C[C@@H](/C=C/CCSC(=O)CCCCCCC)OC(=O)[C@H](C(C)(C)C)NC1=O [Compound 237] |
| – | 52 nM | 82 nM | 65 nM | 66 nM | – | 7.08 | no activity | – | – | – | – | 110 nM | 110 nM | 7.23 | – | – | C/C=C1\NC(=O)c2cccc(n2)CNC(=O)C[C@@H](/C=C/CCSC(=O)CCCCCCC)OC(=O)[C@H](c2ccc(O)cc2)NC1=O [Compound 238] |
